Measurements from ChEMBL document CHEMBL5385856, “Novel 1,4,5,6-tetrahydrocyclopenta[d]imidazole-5-carboxamide-based JNK3 inhibitors: Design, synthesis, molecular docking, and therapeutic potential in neurodegenerative diseases” (Eur J Med Chem, 2023).

Assays:
[1] = target: Mitogen-activated protein kinase 10 (Homo sapiens, UniProt P53779); test: Inhibition of JNK3 (unknown origin) using ATF2 as substrate incubated for 40 mins in presence of [gamma33P]ATP by scintillation counting analysis
Cortical neurone = test: cells; details: Rattus norvegicus, 120 h, read-out: Activity
[2] = Selectivity ratio of IC50 for inhibition of JNK1 (unknown origin) to IC50 for inhibition of JNK3 (unknown origin)
[3] = target: Mitogen-activated protein kinase 9 (Homo sapiens, UniProt P45984); test: Inhibition of JNK2 (unknown origin) incubated for 20 mins in presence of 33P-ATP
[4] = target: Mitogen-activated protein kinase 14 (Homo sapiens, UniProt Q16539); test: Inhibition of p38alpha (unknown origin) incubated for 20 mins in presence of 33P-ATP
[5] = target: Mitogen-activated protein kinase 8 (Homo sapiens, UniProt P45983); test: Inhibition of JNK1 (unknown origin) incubated for 20 mins in presence of 33P-ATP
[6] = target: Glycogen synthase kinase-3 beta (Homo sapiens, UniProt P49841); test: Inhibition of GSK3beta (unknown origin) incubated for 20 mins in presence of 33P-ATP
Sequence of Glycogen synthase kinase-3 beta (P49841 whole entry): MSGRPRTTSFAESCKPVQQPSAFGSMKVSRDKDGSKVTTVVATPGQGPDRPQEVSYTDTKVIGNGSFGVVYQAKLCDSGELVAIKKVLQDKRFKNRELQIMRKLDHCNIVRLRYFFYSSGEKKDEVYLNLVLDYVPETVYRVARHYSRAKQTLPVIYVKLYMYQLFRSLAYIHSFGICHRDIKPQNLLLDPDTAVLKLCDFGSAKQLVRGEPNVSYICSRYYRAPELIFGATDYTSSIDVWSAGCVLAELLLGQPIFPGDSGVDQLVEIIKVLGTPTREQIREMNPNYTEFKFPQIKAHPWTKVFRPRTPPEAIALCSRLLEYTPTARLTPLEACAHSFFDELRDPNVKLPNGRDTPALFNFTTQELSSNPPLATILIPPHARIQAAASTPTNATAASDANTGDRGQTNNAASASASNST

Sequence of Mitogen-activated protein kinase 9 (P45984 whole entry): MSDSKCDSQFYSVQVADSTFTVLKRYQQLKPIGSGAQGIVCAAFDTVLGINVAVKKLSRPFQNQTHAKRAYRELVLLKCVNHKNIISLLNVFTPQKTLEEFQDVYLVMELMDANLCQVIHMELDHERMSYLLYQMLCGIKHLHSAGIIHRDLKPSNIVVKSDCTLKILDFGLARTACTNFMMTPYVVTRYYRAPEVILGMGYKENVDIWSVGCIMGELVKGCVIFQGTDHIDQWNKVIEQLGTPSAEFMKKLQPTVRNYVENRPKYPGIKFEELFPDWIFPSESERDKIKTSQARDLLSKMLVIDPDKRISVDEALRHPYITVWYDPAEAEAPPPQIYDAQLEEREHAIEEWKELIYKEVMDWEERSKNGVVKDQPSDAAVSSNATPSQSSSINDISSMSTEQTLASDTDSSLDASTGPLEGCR
Sequence of Mitogen-activated protein kinase 8 (P45983 whole entry): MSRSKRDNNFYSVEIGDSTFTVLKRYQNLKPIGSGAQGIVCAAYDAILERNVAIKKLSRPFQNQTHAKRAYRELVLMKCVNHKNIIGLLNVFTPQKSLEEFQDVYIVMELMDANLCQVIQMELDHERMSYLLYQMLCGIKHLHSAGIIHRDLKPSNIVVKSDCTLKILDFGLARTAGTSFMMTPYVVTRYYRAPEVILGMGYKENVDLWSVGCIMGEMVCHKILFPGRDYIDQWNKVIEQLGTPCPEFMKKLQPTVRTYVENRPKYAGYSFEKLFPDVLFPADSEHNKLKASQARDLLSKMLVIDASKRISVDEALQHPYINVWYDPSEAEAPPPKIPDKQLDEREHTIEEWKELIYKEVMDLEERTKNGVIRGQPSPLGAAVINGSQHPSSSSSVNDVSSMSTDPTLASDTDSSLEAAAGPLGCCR
Sequence of Mitogen-activated protein kinase 10 (P53779 whole entry): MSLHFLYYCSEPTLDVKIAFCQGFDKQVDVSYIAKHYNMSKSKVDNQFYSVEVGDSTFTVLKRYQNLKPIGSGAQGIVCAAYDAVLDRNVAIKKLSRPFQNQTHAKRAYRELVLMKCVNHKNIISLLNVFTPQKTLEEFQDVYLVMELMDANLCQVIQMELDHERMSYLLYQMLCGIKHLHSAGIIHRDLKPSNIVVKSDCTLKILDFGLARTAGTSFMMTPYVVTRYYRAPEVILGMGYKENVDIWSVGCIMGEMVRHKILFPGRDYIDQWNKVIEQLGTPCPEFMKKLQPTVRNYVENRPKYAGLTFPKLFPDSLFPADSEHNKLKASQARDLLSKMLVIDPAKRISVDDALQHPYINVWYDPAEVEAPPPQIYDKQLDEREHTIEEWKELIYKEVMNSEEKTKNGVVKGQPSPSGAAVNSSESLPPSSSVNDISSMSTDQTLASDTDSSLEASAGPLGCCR
Sequence of Mitogen-activated protein kinase 14 (Q16539 whole entry): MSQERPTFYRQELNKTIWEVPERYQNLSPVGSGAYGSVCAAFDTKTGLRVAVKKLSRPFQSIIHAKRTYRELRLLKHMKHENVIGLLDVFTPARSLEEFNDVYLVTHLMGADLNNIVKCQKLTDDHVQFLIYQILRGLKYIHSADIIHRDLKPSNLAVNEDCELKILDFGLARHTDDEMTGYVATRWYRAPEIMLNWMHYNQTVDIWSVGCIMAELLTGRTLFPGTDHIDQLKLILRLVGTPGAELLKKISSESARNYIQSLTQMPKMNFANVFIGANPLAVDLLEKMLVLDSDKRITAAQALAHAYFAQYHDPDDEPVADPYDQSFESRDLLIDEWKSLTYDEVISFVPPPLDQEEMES

| SMILES | IC50 [1] [nM] | further results |
| --- | --- | --- |
| NC(=O)C1Cc2nc(-c3ccc(Cl)c(Cl)c3)n(-c3ccnc(N[C@@H]4CCN(C(=O)C5CC5)C4)n3)c2C1 (some centres not stated) | 16.4 |  |
| NC(=O)C1Cc2nc(-c3ccc4ccccc4c3)n(-c3ccnc(N[C@@H]4CCN(C(=O)C5CC5)C4)n3)c2C1 (some centres not stated) | 24.9 |  |
| NC(=O)C1Cc2nc(-c3ccc(F)c(C(F)(F)F)c3)n(-c3ccnc(N[C@@H]4CCCN(C(=O)C5CC5)C4)n3)c2C1 (some centres not stated) | 104 |  |
| NC(=O)C1Cc2nc(-c3ccc4c(c3)CCO4)n(-c3ccnc(N[C@@H]4CCN(C(=O)C5CC5)C4)n3)c2C1 (some centres not stated) | 63 |  |
| NC(=O)C1Cc2nc(-c3ccc4c(c3)CCO4)n(-c3ccnc(N[C@H]4CCCN(C(=O)C5CC5)C4)n3)c2C1 (some centres not stated) | 9.06 | viability at 10 µM (Cortical neurone): 53% |
| CNC(=O)C1Cc2nc(-c3ccc(F)c(C(F)(F)F)c3)n(-c3ccnc(N[C@H]4CCN(C(=O)C5CC5)C4)n3)c2C1 (some centres not stated) | 601 |  |
| CNC(=O)C1Cc2nc(-c3ccc(Cl)c(Cl)c3)n(-c3ccnc(N[C@H]4CCCN(C(=O)C5CC5)C4)n3)c2C1 (some centres not stated) | 1.2 | Ratio IC50 [2]: 100; IC50 [3]: 15.4 nM; IC50 [4]: 532 nM; IC50 [5]: 86.5 nM; IC50 [6]: > 10000 nM |
| NC(=O)C1Cc2nc(-c3ccc4c(c3)OCO4)n(-c3ccnc(N[C@H]4CCCN(C(=O)C5CC5)C4)n3)c2C1 (some centres not stated) | 10 | viability at 10 µM (Cortical neurone): 55.1% |
| CNC(=O)C1Cc2nc(-c3ccc(F)c(C(F)(F)F)c3)n(-c3ccnc(N[C@@H]4CCCN(C(=O)C5CC5)C4)n3)c2C1 (some centres not stated) | 700 |  |
| CCOC(=O)C1Cc2nc(-c3ccc4c(c3)CCO4)n(-c3ccnc(N[C@H]4CCCN(C(=O)C5CC5)C4)n3)c2C1 (some centres not stated) | 31.4 |  |
| CNC(=O)C1Cc2nc(-c3ccc(Cl)c(Cl)c3)n(-c3ccnc(N[C@@H]4CCCN(C(=O)C5CC5)C4)n3)c2C1 (some centres not stated) | 4.83 |  |
| CNC(=O)C1Cc2nc(-c3ccc(Cl)c(Cl)c3)n(-c3ccnc(N[C@@H]4CCN(C(=O)C5CC5)C4)n3)c2C1 (some centres not stated) | 9.36 |  |
| CCOC(=O)C1Cc2nc(-c3ccc(F)c(C(F)(F)F)c3)n(-c3ccnc(N[C@@H]4CCCN(C(=O)C5CC5)C4)n3)c2C1 (some centres not stated) | 65.4 |  |
| NC(=O)C1Cc2nc(-c3ccc4c(c3)CCO4)n(-c3ccnc(N[C@@H]4CCCN(C(=O)C5CC5)C4)n3)c2C1 (some centres not stated) | 8.92 |  |
| CCOC(=O)C1Cc2nc(-c3ccc4c(c3)OCO4)n(-c3ccnc(N[C@H]4CCN(C(=O)C5CC5)C4)n3)c2C1 (some centres not stated) | 243 |  |
| NC(=O)C1Cc2nc(-c3ccc4c(c3)OCO4)n(-c3ccnc(N[C@@H]4CCN(C(=O)C5CC5)C4)n3)c2C1 (some centres not stated) | 103 |  |
| CNC(=O)C1Cc2nc(-c3ccc(Cl)c(Cl)c3)n(-c3ccnc(N[C@H]4CCN(C(=O)C5CC5)C4)n3)c2C1 (some centres not stated) | 10.2 |  |
| CCOC(=O)C1Cc2nc(-c3ccc(Cl)c(Cl)c3)n(-c3ccnc(N[C@@H]4CCN(C(=O)C5CC5)C4)n3)c2C1 (some centres not stated) | 4.33 |  |
| CCOC(=O)C1Cc2nc(-c3ccc(Cl)c(Cl)c3)n(-c3ccnc(N[C@H]4CCN(C(=O)C5CC5)C4)n3)c2C1 (some centres not stated) | 28.2 |  |
| CCOC(=O)C1Cc2nc(-c3ccc4c(c3)OCO4)n(-c3ccnc(N[C@H]4CCCN(C(=O)C5CC5)C4)n3)c2C1 (some centres not stated) | 10.5 |  |
| CCOC(=O)C1Cc2nc(-c3ccc4c(c3)CCO4)n(-c3ccnc(N[C@H]4CCN(C(=O)C5CC5)C4)n3)c2C1 (some centres not stated) | 158 |  |
| CNC(=O)C1Cc2nc(-c3ccc(F)c(C(F)(F)F)c3)n(-c3ccnc(N[C@H]4CCCN(C(=O)C5CC5)C4)n3)c2C1 (some centres not stated) | 30.6 |  |
| CCOC(=O)C1Cc2nc(-c3ccc(Cl)c(Cl)c3)n(-c3ccnc(N[C@H]4CCCN(C(=O)C5CC5)C4)n3)c2C1 (some centres not stated) | 1.11 | viability at 10 µM (Cortical neurone): 63.2%; IC50 [3]: 14.8 nM; IC50 [4]: 285 nM; IC50 [5]: 158 nM; IC50 [6]: 4860 nM |
| CNC(=O)C1Cc2nc(-c3ccc4c(c3)OCO4)n(-c3ccnc(N[C@@H]4CCN(C(=O)C5CC5)C4)n3)c2C1 (some centres not stated) | 93.9 |  |
| CCOC(=O)C1Cc2nc(-c3ccc4ccccc4c3)n(-c3ccnc(N[C@@H]4CCCN(C(=O)C5CC5)C4)n3)c2C1 (some centres not stated) | 0.779 | IC50 [3]: 11.9 nM; IC50 [4]: 84.7 nM; IC50 [5]: 56.1 nM; IC50 [6]: 1250 nM |
| CNC(=O)C1Cc2nc(-c3ccc4ccccc4c3)n(-c3ccnc(N[C@@H]4CCCN(C(=O)C5CC5)C4)n3)c2C1 (some centres not stated) | 1.08 | Ratio IC50 [2]: 50; IC50 [3]: 16.3 nM; IC50 [4]: 37.5 nM; IC50 [5]: 75.5 nM; IC50 [6]: 1660 nM |
